Holding throughout (format): cell-based, human
One data set has as its system p53. Nature of the data set: p53-dependent transcriptional activity reporter assay (β-galactosidase) in Arn-8 cells. Particulars: p53 reporter assays. On the procedure:
Table S3. Results of p53 activity of compounds 4a-u and 7a-j.
Compound fold p53 activity […]
p53-dependent transcriptional activity
To measure p53-dependent transcriptional activity, -galactosidase activity was determined in the human melanoma cell line Arn-8, stably transfected with a p53-responsive reporter construct pRGC foslacZ as described before. After 24 h incubation with the inhibitors, the cells were permeabilized with 0.3% Triton X-100 for 15 min, and then 4-methylumbelliferon-ß-D-galactopyranoside was added as a substrate to a final concentration of 80 µM. […]
fluorescence was measured at 355/460 nm (ex/em) with a Fluoroskan Ascent microplate reader […]
Figure S6. Dose-response effect of roscovitine on p53 activity in ARN8 cells (control experiment).
(1 picture or pasted object on this page, not shown here)

The next data set concerns HL-60. Nature of the data set: MTT cytotoxicity assay, 72 h. The settings on record: for IC50: Homo sapiens. In short, it runs like this:
(§1)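 Plated cells (1 × 10^4 per well) received test compounds from 0.1 to 100 µM for 72 h in serum-containing medium. After 4 h with 0.5 mg/mL MTT, the dye was dissolved in 10% SDS with 0.1 mM HCl overnight and measured at 570 nm.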
A general note: Tetrazolium dyes change colour on reduction, which living cells bring about.

A further data set concerns K562. The experiment in a line: MTT cytotoxicity assay, 72 h. In short, it runs like this:
as §1

For a further data set, the system named is MCF-7. Nature of the data set: MTT cytotoxicity assay, 72 h. In short, it runs like this: as §1
Another data set relates to HCT-116. Nature of the data set: MTT cytotoxicity assay, 72 h. Particulars: Homo sapiens, HCT-116, IC50 ± SD. In short, it runs like this: as §1
Another data set concerns NCI-H460. The experiment in a line: MTT cytotoxicity assay, 72 h. An outline of the steps: as §1
The next data set has as its system CFPAC-1. The experiment in a line: MTT cytotoxicity assay, 72 h. The settings on record: Homo sapiens, CFPAC-1, IC50 ± SD. In short, it runs like this:
as §1

Data set [1] concerns HL-60 cells. Nature of the data set: Annexin-V FITC/PI apoptosis assay by flow cytometry. Particulars: for Q2 (late apoptosis) cells / Q3 (viable) cells: 24 h. The protocol:
To assess an unequivocal identification of apoptosis, annexin-V FITC is commonly combined with PI to understand if cells are viable, apoptotic, or necrotic through differences in plasma membrane integrity and permeability. To better understand the ability of compound 7h (the lowest IC50 values and high SI) to induce cell death, we performed the annexin-V FITC/PI assay. HL-60 cells were treated with 7h at the dose corresponding to 5 and 50 μM by 24 h, then harvested and stained with annexin-V FITC and PI (Figure 8). […] In addition, Figure 8 illustrates a discrete increase in the apoptosis (Q2 and Q4) from 5 to 50 µM, as well as an increase in necrosis at the concentration of 50 µM.
HL60 cells were seeded into a 12-well plate (5 × 10^5 per well) and incubated in RPMI 1640 […] for 24 h at 37 °C—then, replaced with fresh medium containing the tested compound 7h at indicated concentrations for another 24 h. The cells were collected and then used the Annexin-V/PI Alexa Fluor 488 apoptosis kit (Invitrogen, Carlsbad, CA, USA) according to the instruction of manufacturer to detect the apoptosis cells, which were analyzed by flow cytometry (BD; FACScanto II, Mountain View, CA) and data were processed using FCS Express v6 software. Two independent biological replicates were performed.
Background: In flow cytometry, cells or beads pass a laser one at a time.

Another data set concerns MRC-5. Nature of the data set: MTT cytotoxicity assay, 72 h, normal control cells. The settings on record: Homo sapiens, MRC5, IC50 ± SD, normal fibroblasts. An outline of the steps: as §1
Data set [2] has as its system HL-60 cells. Nature of the data set: Cell cycle analysis, PI flow cytometry. The settings on record: HL-60, 25 µM, 48 h. The protocol: Considering that apoptotic mechanisms are associated with the G1/S boundary cell cycle arrest and the inhibition of cell cycle progression is an important factor to control cancer cell growth, we were interested in investigating whether 7h affects the cell cycle of HL-60 cells. We analyzed the cell cycle distribution of the cells stained with PI using flow cytometry. […] This effect is in agreement with apoptotic mechanisms.
HL60 cells were plated in 6-well plates at a density of 2.0 × 10^5 cells/1.5 mL/well, and grown overnight at 37 °C in a 5% CO2 humidified atmosphere. Cells were treated with compounds 7h at 25 µM concentration or 1% DMSO (controls) for 48 h. Aliquots of cells were collected, pelleted, washed, and fixed with ethanol (70% v/v) for at least 30 min at 4 °C. Cells were twice resuspended in PBS, and after centrifugation and elimination of the supernatant, resuspended in a solution containing PBS, PI ([…], Invitrogen), RNase A (20 mg/mL, Invitrogen). After a final incubation for 1 h in the dark at 37 °C; PI signal was measured using a FACS canto II flowcytometer (BD; Mountain View, CA) with a 488 nm excitation laser, captured, and FACS Diva was used as the acquisition software. The percentage of cells in each phase was analyzed using the FCS Express v6 software. Three independent biological replicates were performed.

Read-outs that look alike come from different tables or passages of the source.

Consider `O=[N+]([O-])c1ccc(N2CCN(c3nc(Cl)nc4c3ncn4C3CCCC3)CC2)cc1` [7h, 2-Chloro-9-cyclopentyl-6-(4-(4-nitrophenyl)piperazin-1-yl)-9H-purine], for which the “effect on p53 activation” value in the data set with p53 is given as “no effect on p53 activation”. Moreover, the IC50 in the data set on HL-60 (HL-60, 72 h, MTT, 72 h, IC50 ± SD, read-out: IC50 HL-60) is 400 ± 10 nM; in the data set on HL-60 (HL-60, -logIC50 in molar concentration, Table S1, read-out: Experimental pIC50 (HL-60) (converted)), 400 nM; in the data set with K562 (Homo sapiens, K562, 72 h, MTT, 72 h, IC50 ± SD), 1020 ± 40 nM; with MCF-7 (MTT, 72 h, IC50 ± SD), 1550 ± 340 nM; in the data set on HCT-116, 30000 ± 7100 nM; with NCI-H460 (Homo sapiens, NCI-H460, 72 h, MTT, 72 h, IC50 ± SD, read-out: IC50 NCI-H460), 1300 nM. For the same molecule, the IC50 with NCI-H460 (Homo sapiens, NCI-H460, -logIC50 in molar concentration, Table S2, read-out: Experimental pIC50 (NCI-H460) (converted)) was 1310 nM; in the data set on NCI-H460 (MTT, 72 h, IC50 ± SD, read-out: IC50 NCI-H460), 1310 ± 70 nM; with CFPAC-1 it was more than 100000 nM; in the data set on MRC-5, more than 100000 nM. Besides, the “Selectivity Index (SI) MRC-5/HL-60” value in the data set with HL-60 (IC50 in MRC-5 / IC50 in HL-60) is listed as more than 250. The “Selectivity Index (SI) MRC-5/K562” value in the data set with K562 (IC50 in MRC-5 / IC50 in K562) is reported as more than 98. In addition, the “Selectivity Index (SI) MRC-5/MCF-7” value in the data set with MCF-7 (IC50 in MRC-5 / IC50 in MCF-7) is on record as more than 64.5. Also, the “Selectivity Index (SI) MRC-5/NCI-H460” value with NCI-H460 (IC50 in MRC-5 / IC50 in NCI-H460) was more than 76.3. Besides, the “Q2 (late apoptosis) cells” value amounted to 36.5% in the data set with HL-60 cells [1] (HL-60, 5 μM) and 37.7% in the data set on HL-60 cells [1] (HL-60, 50 μM). For the same molecule, the “Q3 (viable) cells” value is approximately 55% in the data set on HL-60 cells [1] (HL-60, 5 μM, 5 µM) and 38% with HL-60 cells [1] (HL-60, 50 μM, 50 µM). Moreover, the viability at 5 µM with HL-60 cells [1] (Homo sapiens, HL-60, 24 h, HL-60, 5 μM, read-out: Q3 (viable) cells) was 55.2%. Moreover, the viability at 50 µM in the data set with HL-60 cells [1] (Homo sapiens, HL-60, 24 h, HL-60, 50 μM, read-out: Q3 (viable) cells) worked out at 37.8%. For the same molecule, the “effect on cell cycle distribution” value in the data set with HL-60 cells [2] is “accumulation of cells in S cell cycle phase”.

(Values after publication PMC6981454, “Promising 2,6,9-Trisubstituted Purine Derivatives for Anticancer Compounds: Synthesis, 3D-QSAR, and Preliminary Biological Assays” (International Journal of Molecular Sciences, 2019).)
